Source: patent publication US7537906B2, “Apoptosis inducer and method of screening for a substance inhibiting acylated homoserine lactone” (priority 2003, dated 2009)

Columns and labels:
IL-8 = details: human alveolar cells; cited from earlier work
CaCo-2 cells [1] = test: Chromatin condensation and determination of apoptosis by Hoechst33342 staining; assay type: cell-based, human; details: 12 hours of culture
Method: 2×10^4 CaCo-2 cells were inoculated on an 8-well culture slide (Collagen I Cellware BioCoat, Becton Dickinson), washed twice with PBS (-), and then cultured in a serum-free DMEM medium containing 1% NEAA for 24 hours. 3-oxododecanoyl homoserine lactone was added at each concentration (1 to 100 μM). After 12 hours of culture, the cells were fixed by 4% paraformaldehyde-3% sucrose/PBS, chromatin staining was carried out using Hoechst 33342 fluorescent dye, and then the cells were observed under a fluorescence microscope. With a magnification of ×400, 5 visual fields were selected at random. Apoptotic cells and normal cells were counted and the proportion of apoptotic cells was calculated. These steps were denoted as n=1, and conducted 3 times or more.

ERK = test: MAP kinase activity by Western blot in CaCo-2 cells: phosphorylated ERK; assay type: cell-based, human
Method: A CaCo-2 carcinoma cell line of human colon cancer was purchased from American Type Culture Collection (ATCC), and cultured at 37° C. in the presence of 5% CO2 using a DMEM medium containing 10% FCS, 1% NEAA and 1% P/S (100 units/ml penicillin and 100 μg/ml streptomycin).
6×10^5 CaCo-2 cells were inoculated per dish using 6 cm dishes (NUNC), washed twice with phosphate buffered saline (PBS) (-), and then cultured in a serum-free DMEM medium containing 1% NEAA for 24 hours. Subsequently, at a final concentration of 100 μM, homoserine lactone hydrochloride and N-(3-oxododecanoyl)-L-homoserine lactone were each added, and then each solution was allowed to react for 10 minutes. Furthermore, purified acylated homoserine lactone used herein had been dissolved in DMSO in a concentration 400 times higher than the target final concentration, and then subjected to filter sterilization (φ 0.22 μm). As a control, DMSO with a final concentration of 0.25% was used. In addition, α-tubulin was used as an internal standard.
After reaction, the product was washed twice with cold PBS (-), and then frozen at −80° C. The cells were thawed on ice. 200 μl of a lysis buffer (50 mM HEPES, pH 7.5, 50 mM NaCl, 1 mM EDTA, 1.5 mM MgCl2, 1% Triton X-100, 10% glycerin, 10 mM sodium pyrophosphate, 1 mM Na3VO4, 100 mM NaF, 1 mM PMSF, 10 μg/ml aprotinin and 10 μg/ml leupeptin) was added to the cells, and then the cells were scraped off using a scraper. The cells were allowed to stand on ice for 20 minutes, and then centrifuged at 14000 rpm at 4° C. for 15 minutes, thereby collecting the supernatant. Concentration of the collected protein was measured, and then the protein equivalent to 50 μg was subjected to SDS-PAGE. After electrophoresis, the product was blotted on a PVDF membrane. When phosphorylated ERK, JNK, p38 and Akt were measured, blocking was carried out with 0.1% Tween 20 (TBS-T) containing 5% skim milk/Tris-buffered saline. As primary antibodies, an anti-phospho-p44/42 MAP kinase antibody, an anti-phospho-SAPK/JNK antibody, an anti-phospho-p38 MAP kinase antibody, and an anti-phospho-Akt ([…]) antibody were each used. As a secondary antibody, an HRP-labeled anti-rabbit IgG antibody was used. For the α-tubulin used as an internal standard, blocking was carried out with 5% bovine serum albumin (BSA)/TBS-T, and an anti-α-tubulin (Ab-1) antibody and an HRP-labeled anti-mouse IgG antibody were used as a primary antibody and a secondary antibody, respectively. For band detection, Renaissance™ Western Blot Chemiluminescence […] Reagent Plus (NEN) or Western Blotting Luminol Reagent (SANTA CRUZ BIOTECHNOLOGY) was used.
After cell culture, MAP kinase activity and Akt activity were analyzed by Western blot in a manner similar to that used in (1), except that N-(3-oxododecanoyl)-L-homoserine lactones in final concentrations of 0 μM (0.25% DMSO), 1 μM, 10 μM, 30 μM and 100 μM were each added and each solution was allowed to react for 10 minutes (FIG. 8).
After cell culture, N-(3-oxododecanoyl)-L-homoserine lactone with final concentrations of 30 μM and 100 μM were added. For each case, MAP kinase activity and Akt activity were measured by Western blot in a manner similar to that in (1), except for carrying out stimulation with acylated homoserine lactone in a short time course of 0, 5, 10, 30 and 60 minutes (FIG. 11), and in a long time course of 0, 10 minutes, 60 minutes, 2 hours, 4 hours, 6 hours, 8 hours and 10 hours (FIG. 12). In the case of stimulation at 30 μM, both ERK and p38 activities increased with a peak at 10 minutes. However, while ERK activity returned to the base level within 30 minutes, p38 activity lasted until 4 hours after stimulation. The inhibition of Akt activity in the case of stimulation at 30 μM peaked at 5 minutes and lasted until 60 minutes after stimulation, and returned to the base level within 2 hours. ERK activation took place with two steps in the case of stimulation at 100 μM. […]

CaCo-2 cells [2] = test: Evaluation of apoptosis by DNA fragmentation (DNA ladder); assay type: cell-based, human; details: CaCo-2 cells cultured for 12 hours, 0-100 μM
Method: 5×10^6 CaCo-2 cells were inoculated per 15 cm dish (NUNC), washed twice with PBS (-), and then cultured in a serum-free DMEM medium containing 1% NEAA for 24 hours. N-(3-oxododecanoyl)-L-homoserine lactone was added at each concentration (1 μM to 100 μM), followed by 12 hours of culture. Subsequently, the supernatant and the cells removed from the dish using TE were centrifuged at room temperature at 800 rpm for 5 minutes, and the supernatant was removed. The cells were suspended with 300 μl of PBS (-), and then the suspension was centrifuged again at 4° C. at 2500 rpm for 5 minutes, and the supernatant was removed. The cells were lysed by the addition of 300 μl of a cytolysis buffer [10 mM Tris-HCl (pH 7.4), 10 mM EDTA (pH 8.0), 0.5% Triton X-100], and then allowed to stand on ice for 10 minutes, thereby extracting DNA fragments. The extract was centrifuged at 4° C. at 14000 rpm for 10 minutes. RNase A was added to the obtained supernatant, and then incubation was carried out at 37° C. for 1 hour. Proteinase K was further added, and then incubation was carried out at 50° C. for 30 minutes. The extract of the DNA fragments was concentrated by ethanol precipitation, and then electrophoresis was carried out using 2% agarose gel. After the gel was stained with ethidium bromide, DNA fragmentation was detected under a UV transilluminator.

Q: Which IL-8 production (IL-8) does the source give for `CCCCCCCCCC(=O)CC(=O)N[C@H]1CCOC1=O` [N-(3-oxododecanoyl)-L-homoserine lactone] here?
A: stimulates

Q: What about the “cell morphology by Hoechst 33342 staining” value (CaCo-2 cells [1]; 1 μM) of the same compound?
A: only normal cells were observed

Q: What about the “proportion of apoptotic cells to the total cell count” value (from here on “proportion of apoptotic cells”) (CaCo-2 cells [1]; 10 μM) of the same compound?
A: 15%

Q: And the “proportion of apoptotic cells” value (CaCo-2 cells [1]; 30 μM)?
A: 39%

Q: And the “proportion of apoptotic cells” value (CaCo-2 cells [1]; 100 μM)?
A: 50%

Q: What about the “concentration at which apoptotic cells exhibiting chromatin condensation were observed” value (CaCo-2 cells [1]) of the same compound?
A: ≥ 10 µM

Q: What about the ERK activity increase (ERK; 10 μM, 10 minutes) of the same compound?
A: 1.5 times

Q: What about the ERK activity increase (ERK; 30 μM, 10 minutes) of the same compound?
A: 7.7 times

Q: And the ERK activity increase (ERK; 100 μM, 10 minutes)?
A: 9.8 times

Q: What about the “activation of ERK” value (ERK; 100 μM, 10 minutes) of the same compound?
A: promoted

Q: What about the “concentration at which levels of phosphorylated ERK significantly increased” value (ERK; 10 minutes) of the same compound?
A: ≥ 10 µM

Q: What about the “time for ERK activity to return to the base level” value (ERK; stimulation at 30 μM) of the same compound?
A: ≤ 30 min

Q: And the “time of peak ERK activity” value (ERK; stimulation at 30 μM)?
A: 10 min

Q: And the “time at which ERK activity began to increase, second step” value (ERK; stimulation at 100 μM)?
A: 4 h

Q: What about the “time for ERK activity to return to the base level, first step” value (ERK; stimulation at 100 μM) of the same compound?
A: ≤ 2 h

Q: And the “time for ERK activity to return to the base level, second step” value (ERK; stimulation at 100 μM)?
A: ≤ 10 h

Q: And the “time of peak ERK activity, first step” value (ERK; stimulation at 100 μM)?
A: 5 min

Q: And the “time of peak ERK activity, second step” value (ERK; stimulation at 100 μM)?
A: 8 h

Q: And the “concentration at which the DNA ladder was observed” value (CaCo-2 cells [2])?
A: ≥ 30 µM
